Measured values taken from PMC13164762, “Development and Validation of an LC-MS/MS Method for the Quantitation of JNJ-64619178 (JNJ) in Mouse Plasma: Characterization of In Vitro and In Vivo Pharmacokinetic Properties” (Molecules, 2026).

What was measured:
[1] = system: Caco-2 cell monolayer; experiment: Caco-2 permeability study; type: in vitro ADME, human; details: absorptive direction (apical to basal), 10 µM
Experimental: (§1) Human colon carcinoma cells (Caco-2) were obtained from ATCC (American Type Culture Collection) (Manassas, VA, USA). Caco-2 cells were cultured in Dulbecco’s Modified Eagle’s Medium (DMEM), supplemented with 10% fetal bovine serum, 1% nonessential amino acids, 100 U mL^−1 penicillin, and 100 µg mL^−1 streptomycin. The cells were split upon reaching the 80–90% confluence to make them ready to seed. Afterwards, the cells were seeded at a density of 80,000 cells/well in a 12-well tissue culture plate with a 0.4 µm pore size, purchased from CELLTREAT Scientific Products (Pepperell, MA, USA), and incubated at 37 °C in an incubator with 5% CO2 conditions. […] The integrity of the monolayer was evaluated by measuring the transepithelial electrical resistance (TEER) value using EVOM2™ Epithelial Voltohmmeter purchased from World Precision Instruments Inc. (Sarasota, FL, USA).
(§2) JNJ was spiked at a final concentration of 10 µM to the apical side in a volume of 500 µL HBSS-HEPES (10 mM) buffer along with the positive control (propranolol and atenolol) in respective wells. […] After determined timepoints (0, 30, 60, 90, and 120 min), 100 µL aliquots were collected from the apical or basolateral sites, each time replacing with an equal volume of blank buffer. […]

[2] = Caco-2 permeability study; type: in vitro ADME, human; details: human, Caco-2, absorptive direction (apical to basal), read-out: apparent permeability (Papp), Caco-2
Experimental: as §1, §2

[3] = Parallel artificial membrane permeability assay (PAMPA); type: physicochemical; details: 5 µg mL^−1 in PBS, room temperature, read-out: apparent permeability (Papp), PAMPA
Experimental: A Corning® BioCoat™ Pre-coated PAMPA Plate System, obtained from Corning Life Sciences (Glendale, AZ, USA), was used for the noncell-based permeability assay. As per the manufacturer’s instructions, the PAMPA plate was warmed at room temperature for 30 min to make it ready for use. A JNJ stock solution was prepared in PBS at a concentration of 5 µg mL^−1. Then, 300 µL of that prepared solution was poured into the donor side and 200 µL PBS was added to the acceptor side of each well in triplicate. After incubation for 5 h at room temperature, 50 µL samples were collected separately from the donor and acceptor chamber. Finally, samples were processed following the extraction procedure and analyzed using LC-MS/MS analysis. The apparent permeability coefficient is determined using the following formula:(8) Papp=−ln[1 − Cat/Ceq]/A ∗ 1/Vd + 1/Va∗t where Papp = apparent permeability in cm s^−1, Co = initial compound concentration in donor well (µg mL^−1), Cd(t) = compound concentration in donor well at time t (µg mL^−1), Ca(t) = compound concentration in acceptor well at time t (µg mL^−1), Vd = donor well volume (0.3 mL), Va = acceptor well volume (0.2 mL), A = filter area (0.3 cm^2), and t = incubation time (18,000 s). Ceq is calculated by(9) Ceq=[Cd(t)∗Vd+Ca(t)∗Va] /(Vd+Va)

[4] = Matrix stability study in mouse plasma; type: in vitro ADME; details: 5 µg mL^−1, 37 °C, approximately 5 h, triplicate, read-out: concentration remaining (%)
Experimental: (§3) For the matrix stability study, JNJ was spiked into mouse plasma and brain homogenate at a final concentration of 5 µg mL^−1 and incubated at 37 °C for 5 h on a shaking water bath in triplicate. At the specified sampling times, 50 µL aliquots were taken in the collection plate, followed by quenching with 300 µL acetonitrile containing 10 µL IS. After final collection, samples were vortexed at 1000 rpm for 2 min and centrifuged at 2200× g for 10 min, and the collected supernatant was analyzed using LC-MS/MS. Stability was estimated by determining the % remaining after 5 h of incubation using Equation (1).(1) % remaining=Concentration5h/Concentration0h×100

[5] = Blood-to-plasma ratio (Rb/p) study; type: in vitro ADME; details: balb/c mouse whole blood
Experimental: Freshly collected whole blood (400 µL) of balb/c mice was taken into an Eppendorf tube, and JNJ was spiked to obtain a final concentration at 5 µg mL^−1 following proper mixing. Blood and plasma samples were collected at 0, 30, and 60 min and processed using the previously described extraction procedure. Rb/p was then estimated by dividing the JNJ concentration in blood by the concentration obtained in plasma samples separated from blood using Equation (5), where CBlood is the drug concentration in blood and CPlasma is the drug concentration in plasma.(7) Rb/p=CBlood/CPlasma

[6] = system: HD-MB cell line; details: method and reference not given; cited from earlier work
[7] = Matrix stability study in mouse brain homogenate; type: in vitro ADME; details: 5 µg mL^−1, 37 °C, approximately 5 h, triplicate, read-out: concentration remaining (%)
Experimental: as §3

- apparent permeability (Papp), Caco-2 [1]: 3 ± 0.4 (×10^−6) cm s^−1
- Papp A→B at 120 min, 10 µM [2]: 3.4 ± 0.4 ×10⁻⁶ cm/s
- Papp at 5 h, 5 µg mL^−1 [3]: 7 ± 4 ×10⁻⁶ cm/s
- remaining at 5 h, 5 µg mL^−1 [4]: ~100%
- blood plasma ratio at 5 µg mL^−1 [5]: ~0.7
- remaining at 5 h, 5 µg mL^−1 [7]: ~100%
Compound: Nc1nc2cc(CC[C@H]3C[C@@H](n4ccc5c(N)ncnc54)[C@H](O)[C@@H]3O)ccc2cc1Br [JNJ, JNJ-64619178]
- IC50 [6]: 1.7 µM
- In Vitro IC50 [6]: 0.821 µg/mL
